Results from patent publication US7608716B2, “Pyrazolonaphthyridine derivative” (Aska Pharmaceutical Co., Ltd., priority 2002, dated 2009).

Assays:
[1] = system: T1, PDE IV isozymes separated from U937 culture cells; test: PDE IV inhibition ([3H]-cAMP hydrolysis); type: biochemical; details: cAMP 1 μM substrate, 30° C., 20 minutes
T1 construct: PDE IV isozymes as used herein were separated from U937 culture cells by using an anion exchange chromatography
Method: PDE IV isozymes as used herein were separated from U937 culture cells by using an anion exchange chromatography. Type IV PDE isozyme was admixed with ethylene glycol (EG) to adjust the final EG concentration to 30%, then stored at −20° C. and diluted when used. The enzymatic activity for PDE IV was measured using cAMP as a substrate.
Each test compound was dissolved in DMSO to adjust the final concentration to 1% (2.5 μl/tube).
Incubation Buffer Solution (pH7.5):
• Tris-HCl (50 mM), magnesium chloride (6 mM), dithiothreitol (2.5 mM), 5-nucleotidase (4 μg/ml), bovine serum albumin (0.23 mg/ml), and cAMP (1 μM).
A mixture of the aforementioned test compound solution and the buffer solution was incubated at 30° C. for 20 minutes. The reaction was quenched by admixing with 1 ml of anion exchange resin slurry (AG1-X8, 200-400 meshes, chloride form; Bio-Rad) to absorb unreacted substrates. After the reaction stopped, the mixture was centrifuged at 800×g for 10 minutes, and the resulting supernatant was collected with vials in 250 μl aliquots. To each vial was added 5 ml of ACS-II (scintillator, Amersham). The radioactivity was measured with a liquid scintillator counter for [^3H]-adenosine and set as the PDE IV activity.

[2] = system: actively sensitized guinea pigs; test: Inhibition of antigen-induced immediate asthmatic response (airway resistance, Konzett-Rossler); type: in vivo, Hartley guinea pigs; details: Cavia porcellus, oral, 60 minutes prior to antigen-challenge, reduction of increase in airway resistance, read-out: Inhibition of Asthmatic response ED50: mg/kg orally
Method: Male Hartley outbred guinea pigs were sensitized by administering intraperitoneally physiological saline (0.5 ml) containing ovalbumin (1 mg, antigen) and 5×10^9 inactivated Bordetella pertussis dead cells (adjuvant). Eleven to thirteen days after the first sensitization, 0.05 ml of an ovalbumin solution (1 mg/ml) (ovalbumin is dissolved in physiological saline) was administered to the lateroabdominal region of each guinea pig intracutaneously. An establishment of sensitization was checked relying on cutaneous reaction. Only guinea pigs wherein significant reddening responses occurred 5 to 10 minutes later were employed in the next measurement test for airway resistance.
The guinea pigs (3 animals per group) actively sensitized in the above step (1) were employed to measure for their airway pressure according to Konzett-Rossler method (Arch. Exp. Path. Pharmakol., 195, 71 (1940)).
Thirteen days after the final sensitization, guinea pigs fasted overnight, and were on the next day anesthetized with a pentobarbital solution (30 mg/1.2 ml/kg, dissolved in physiological saline, intraperitoneal administration). After the guinea pigs were fixed in a supine position, their trachea was incised followed by insertion with one port of a 4-port cannula. Among the remaining 3 ports, 2 ports were connected to an artificial respirator (Model 683, Harvard). The animals were ventilated with 10 ml/kg of air per ventilation at a rate of 60 beats/min via the artificial respirator from the cannula. One port remainder was connected to a respiratory amplifier (AR-601G, Nihon Kohden, Japan) via an airflow resistance tube (TV-241T, Nihon Kohden, Japan) and a differential pressure transducer (TP-602T, Nihon Kohden, Japan) connected with a control box (RY-111S, Nihon Kohden, Japan). From a catheter inserted into a left carotid artery, blood pressures were monitored with a blood pressure measurement unit (AP641G, NEC Corp., Japan) via a blood pressure transducer (TP-300T, Nihon Kohden, Japan), and heart rates were recorded on a thermal recorder (WT-685G, Nihon Kohden, Japan), relying on blood pressure pulse waves after being led to a cardiograph unit (AT601G, Nihon Kohden, Japan).
After airway pressure became stable, an ovalbumin solution (1 mg/ml, dissolved in physiological saline) was administered at a dose of 1 ml/kg via a tube with which the right jugular vein of guinea pigs was cannulated.
Each test compound was suspended in 0.5% CMC-Na solution and administered orally with an oral sound at a dose of 0.03 to 20 mg/2 ml/kg 60 minutes prior to the antigen-challenge. Control groups received only 0.5% CMC-Na solution in an equivalent amount. The pentobarbital-anesthetization and tracheal incision were conducted 30 minutes prior to the antigen-challenge.
Each percent reduction of increase in airway resistance (each test compound-administered group versus control group) was calculated according to the equation given below. ED50 was obtained by Probit method.

TNF-α production = test: Inhibition of TNF-α production in galactosamine- and LPS-stimulation; type: in vivo; details: Mus musculus; C3H/HeN mice, oral, 1 hour before galactosamine/LPS i.v.; serum TNF-α by ELISA 1 hour later; read-out: Inhibition of TNF-α production ED50: mg/kg orally
Method: A suspension of each test compound in 0.5% CMC-Na solution was administered orally to C3H/HeN mice at a dose of 0.10 to 10 mg/kg. One hour later, the animals received intravenously galactosamine at a dose of 800 mg/kg and LPS at a dose 5 μg/kg to raise the induction of TNF-α production. One hour later after the galactosamine- and LPS-administration, amounts of TNF-α in serum samples were measured by ELISA, and ED50 was obtained. Roflumilast and SB207499 were used for the reference compounds in this assay.

SMILES: O=c1c2c(Cc3ccc(O)cc3)n[nH]c2c2cccnc2n1-c1ccccc1 [Example No. 41, 3-(4-hydroxybenzyl)-5-phenyl-1H-pyrazolo[4,3-c][1,8]-naphthyridin-4 (5H)-one]
- IC50 [1]: 0.089 µM
- melting point: 316 to 317 °C

SMILES: O=C(O)c1ccc(CCc2n[nH]c3c2c(=O)n(-c2ccccc2)c2ncccc32)cc1 [Example No. 14, 3-[2-(4-carboxyphenyl)ethyl]-5-phenyl-1H-pyrazolo[4,3-c][1,8]naphthyridin-4 (5H)-one]
- IC50 [1]: 0.057 µM

SMILES: COc1ccc(OC)c(Cc2n[nH]c3c2c(=O)n(-c2ccccc2)c2ncccc32)c1 [Example No. 27, 3-(2,5-dimethoxybenzyl)-5-phenyl-1H-pyrazolo[4,3-c][1,8]naphthyridin-4 (5H)-one]
- IC50 [1]: 0.021 µM

SMILES: Nc1ccc(CCc2n[nH]c3c2c(=O)n(-c2ccccc2)c2ncccc32)cc1 [Example No. 13, 3-[2-(4-aminophenyl)ethyl]-5-phenyl-1H-pyrazolo[4,3-c][1,8]naphthyridin-4 (5H)-one]
- IC50 [1]: 0.031 µM

SMILES: COc1ccc(Cc2n[nH]c3c2c(=O)n(-c2ccccc2)c2ncccc32)c(OC)c1 [Example No. 30, 3-(2,4-dimethoxybenzyl)-5-phenyl-1H-pyrazolo[4,3-c][1,8]naphthyridin-4 (5H)-one]
- IC50 [1]: 0.049 µM

SMILES: COc1ccc(C2CNC(=O)C2)cc1OC1CCCC1 (single isomer, unassigned; (-)) [Rolipram, (−)-4-[3-(cyclopentyloxy)-4-methoxyphenyl]-2-pyrrolidinone]
- ED50 [2]: 0.51 mg/kg

SMILES: CCOC(=O)Cc1ccc(Cc2n[nH]c3c2c(=O)n(-c2ccccc2)c2ncccc32)cc1 [Example No. 32, 3-(4-ethoxycarbonylmethylbenzyl)-5-phenyl-1H-pyrazolo[4,3-c][1,8]naphthyridin-4 (5H)-one]
- IC50 [1]: 0.028 µM

SMILES: COc1ccc([C@]2(C#N)CC[C@@H](C(=O)O)CC2)cc1OC1CCCC1 [SB207499, cis-4-cyano-4-[3-(cyclopentyloxy)-4-methoxyphenyl]cyclohexane-1-carboxylic acid, reference compound]
- ED50 [2]: > 20 mg/kg
- ED50 (TNF-α production): 3.3 mg/kg

SMILES: COc1ccccc1Cc1n[nH]c2c1c(=O)n(-c1ccccc1)c1ncccc21 [Example No. 22, 3-(2-methoxybenzyl)-5-phenyl-1H-pyrazolo[4,3-c][1,8]naphthyridin-4 (5H)-one]
- IC50 [1]: 0.026 µM

SMILES: O=c1c2c(CCc3cc[n+]([O-])cc3)n[nH]c2c2cccnc2n1-c1ccccc1 [Example No. 5, 5-phenyl-3-[2-(1-oxypyridin-4-yl)ethyl]-1H-pyrazolo[4,3-c][1,8]-naphthyridin-4 (5H)-one]
- IC50 [1]: 0.067 µM
- melting point: 285 °C (dec.)

SMILES: O=c1c2c(Cc3ccccc3[N+](=O)[O-])n[nH]c2c2cccnc2n1-c1ccccc1 [Example No. 26, 3-(2-nitrobenzyl)-5-phenyl-1H-pyrazolo[4,3-c][1,8]naphthyridin-4 (5H)-one]
- IC50 [1]: 0.02 µM

SMILES: O=C(O)Cc1ccc(Cc2n[nH]c3c2c(=O)n(-c2ccccc2)c2ncccc32)cc1 [Example No. 46, 3-(4-carboxymethylbenzyl)-5-phenyl-1H-pyrazolo[4,3-c][1,8]naphthyridin-4 (5H)-one]
- IC50 [1]: 0.032 µM
- melting point: 297 to 300 °C

SMILES: O=c1c2c(Cc3cccs3)n[nH]c2c2cccnc2n1-c1ccccc1 [Example No. 23, 3-(2-thienylmethyl)-5-phenyl-1H-pyrazolo[4,3-c][1,8]naphthyridin-4 (5H)-one]
- IC50 [1]: 0.082 µM

SMILES: COc1ccc(Cc2n[nH]c3c2c(=O)n(-c2ccccc2)c2ncccc32)cc1 [Example No. 21, 3-(4-methoxybenzyl)-5-phenyl-1H-pyrazolo[4,3-c][1,8]naphthyridin-4 (5H)-one]
- IC50 [1]: 0.088 µM

SMILES: N#Cc1cccc(-n2c(=O)c3c(Cc4ccccc4)n[nH]c3c3cccnc32)c1 [Example No. 53, 3-benzyl-5-(3-cyanophenyl)-1H-pyrazolo[4,3-c][1,8]-naphthyridin-4 (5H)-one]
- IC50 [1]: 0.028 µM

SMILES: O=c1c2c(Cc3ccccc3)n[nH]c2c2cccnc2n1-c1cccc([N+](=O)[O-])c1 [Example No. 56, 3-benzyl-5-(3-nitrophenyl)-1H-pyrazolo[4,3-c][1,8]-naphthyridin-4 (5H)-one]
- IC50 [1]: 0.023 µM

SMILES: O=c1c2c(CCc3ccncc3)n[nH]c2c2cccnc2n1-c1cccc([N+](=O)[O-])c1 [Example No. 6, 5-(3-nitrophenyl)-3-[2-(pyridin-4-yl)ethyl]-1H-pyrazolo[4,3-c][1,8]naphthyridin-4 (5H)-one]
- IC50 [1]: 0.025 µM
- melting point: 161 to 165 °C

SMILES: O=c1c2c(Cc3ccccc3)n[nH]c2c2cccnc2n1-c1cccc(F)c1 [Example No. 58, 3-benzyl-5-(3-fluorophenyl)-1H-pyrazolo[4,3-c][1,8]-naphthyridin-4 (5H)-one]
- IC50 [1]: 0.035 µM

SMILES: Nc1ccc(Cc2n[nH]c3c2c(=O)n(-c2ccccc2)c2ncccc32)cc1 [Example No. 43, 3-(4-aminobenzyl)-5-phenyl-1H-pyrazolo[4,3-c][1,8]-naphthyridin-4 (5H)-one]
- IC50 [1]: 0.086 µM

SMILES: O=c1c2c(CCc3ccccc3[N+](=O)[O-])n[nH]c2c2cccnc2n1-c1ccccc1 (hydrate or solvate) [Example 16, 3-[2-(2-nitrophenyl)ethyl]-5-phenyl-1H-pyrazolo[4,3-c][1,8]naphthyridin-4 (5H)-one]
- melting point: 333 to 335 °C

SMILES: NC(=O)Nc1ccccc1CCc1n[nH]c2c1c(=O)n(-c1ccccc1)c1ncccc21 [Example 50, 5-phenyl-3-[2-(2-ureidophenyl)ethyl]-1H-pyrazolo[4,3-c][1,8]naphthyridin-4 (5H)-one]
- melting point: 300 to 305 °C

SMILES: O=c1c2c(CCc3ccc([N+](=O)[O-])cc3)n[nH]c2c2cccnc2n1-c1ccccc1 (hydrate or solvate) [Example 11, 3-[2-(4-nitrophenyl)ethyl]-5-phenyl-1H-pyrazolo[4,3-c][1,8]naphthyridin-4 (5H)-one]
- melting point: 260 to 262 °C

SMILES: CS(=O)(=O)c1ccc(Cc2n[nH]c3c2c(=O)n(-c2ccccc2)c2ncccc32)cc1 (hydrate or solvate) [Example 34, 3-(4-methylsulfonylbenzyl)-5-phenyl-1H-pyrazolo[4,3-c][1,8]naphthyridin-4 (5H)-one]
- melting point: 311.5 to 312.5 °C

SMILES: Nc1cccc(-n2c(=O)c3c(CCc4ccncc4)n[nH]c3c3cccnc32)c1 [Example 8, 5-(3-aminophenyl)-3-[2-(pyridin-4-yl)ethyl]-1H-pyrazolo[4,3-c][1,8]naphthyridin-4 (5H)-one]
- melting point: 261 to 263 °C
